The text below walks through data of patent US10457679B2, “Imidazo[4,5-c]quinolin-2-one compounds and their use in treating cancer” (AstraZeneca AB, priority 2015, dated 2019).

The target in one assay is T1, ATR kinase (Homo sapiens, UniProt Q13535).
T1 construct: measuring a decrease in phosphorylation of Chk1 (Ser 345) in HT29 cells; endogenous in cells; host or cells: HT29 cells (ECACC #85061109)
Kind of assay: Assay b) ATR cellular potency (pChk1 Ser345 in HT29 cells after 4NQO). The class given is cell-based. Particulars: HT29 cells, 4NQO, pChk1 Ser345; may be geometric mean of several tests; read-out: Assay b) ATR Cell IC50. The source says:
Assay b): ATR Cellular Potency
ATR is a PI 3-kinase-related kinase which phosphorylates multiple substrates on serine or threonine residues in response to DNA damage during or replication blocks. Chk1, a downstream protein kinase of ATR, plays a key role in DNA damage checkpoint control. Activation of Chk1 involves phosphorylation of Ser317 and Ser345 (the latter regarded as the preferential target for phosphorylation/activation by ATR).
The following morning compound of Formula (I) in 100% DMSO were added to assay plates by acoustic dispensing. After 1 h incubation at 37° C. and 5% CO2. 40 nl of 3 mM 4NQO in 100% DMSO was added to all wells by acoustic dispensing, except minimum control wells which were left untreated with 4NQO to generate a null response control. Plates were returned to the incubator for a further 1 h. […] Then 20 μl of 0.1% Triton X100 in PBS was added and incubated for 10 minutes at r.t., to permeabalise cells. Then the plates were washed once with 50 μl/well PBS, using a Biotek EL405 plate washer.
After 2 h incubation at r.t., the plates were washed three times with 50 μl/well PBS, using a Biotek EL405 plate washer, and plates were then sealed with black plate seals until read. Plates were read using an ArrayScan VTI instrument, using an XF53 filter with 10× objective.

The next assay has as its target T2, mTOR (Homo sapiens, UniProt P42345).
T2 construct: endogenous in cells; host or cells: MDA-MB-468 cells (ATCC HTB 132)
Briefly: Assay d) mTOR cellular potency (phospho-AKT Ser473 in MDA-MB-468 cells). The class given is cell-based. The protocol: Assay d): mTOR Cellular Potency
This assay was used to measure mTOR inhibition in cells. The aim of the phospho-AKT cell based mechanism of action assay using the Acumen Explorer is to identify inhibitors of either PI3Kα or mTOR-Rictor (Rapamycin insensitive companion of mTOR). This is measured by any decrease in the phosphorylation of the Akt protein at Ser473 (AKT lies downstream of PI3Kα in the signal transduction pathway) in the MDA-MB-468 cells following treatment with compound. Method Details:
MDA-MB-468 cells (human breast adenocarcinoma #ATCC HTB 132) were seeded at 1500 cells/well in 40 μl of DMEM containing 10% FBS and 1% glutamine into Greiner 384 well black flat-bottomed plates. Cell plates were incubated for 18 h in a 37° C. incubator before dosing with compounds of Formula (I) in 100% DMSO using acoustic dispensing. Compounds were dosed in a 12 point concentration range into a randomised plate map. Control wells were generated either by dosing of 100% DMSO (max signal) or addition of a reference compound (a PI3K-β inhibitor) that completely eliminated the pAKT signal (min control). Compounds were then tested by one of two assay protocols A or B:
Plates were incubated at 37° C. for 2 h; cells were then fixed by the addition of 10 μl of a 3.7% formaldehyde solution. After 30 minutes the plates were washed with PBS using a Tecan PW384 plate washer. Wells were blocked and cells permeabilised with the addition of 40 μl of PBS containing 0.5% Tween20 and 1% Marvel™ (dried milk powder) and incubated for 60 minutes at r.t. The plates were washed with PBS containing 0.5% (v/v) Tween20 and 20 μl rabbit anti-phospho AKT Ser473 (Cell Signalling Technologies, #3787) in same PBS-Tween+1% Marvel™ was added and incubated overnight at 4° C.
Plates were washed 3 times with PBS+0.05% Tween 20 using a Tecan PW384. 20 μl of secondary antibody Alexa Fluor 488 anti-Rabbit (Molecular Probes, #A11008) diluted in PBS+0.05% Tween20 containing 1% Marvel™ was added to each well and incubated for 1 h at r.t. Plates were washed three times as before then 20 μl PBS added to each well and plates sealed with a black plate sealer.
The plates were read on an Acumen plate reader as soon as possible, measuring green fluorescence after excitation with 488 nm laser. Using this system IC50 values were generated and quality of plates was determined by control wells. Reference compounds were run each time to monitor assay performance.
The cell plates were then incubated for 2 h at 37° C. before being fixed by the addition of 20 μl 3.7% formaldehyde in PBS/A (1.2% final concentration), followed by a 30 minute room temperature incubation, and then a 2× wash with 150 μl PBS/A using a BioTek ELx406 platewasher. Cells were permeabilised and blocked with 20 μl of assay buffer (0.1% Triton X-100 in PBS/A+1% BSA) for 1 h at room temperature, and then washed 1× with 50 μl PBS/A. Primary phospho-AKT (Ser473) D9E XP® rabbit monoclonal antibody (#4060, Cell Signaling Technology) was diluted 1:200 in assay buffer, 20 μl added per well, and plates were incubated at 4° C. overnight. Cell plates were washed 3× with 200 μl PBS/T, then 20 μl 1:750 dilution in assay buffer of Alexa Fluor® 488 goat anti-rabbit IgG secondary antibody (#A11008, Molecular Probes, Life Technologies), with a 1:5000 dilution of Hoechst 33342, was added per well. Following a 1 h incubation at room temperature, plates were washed 3× with 200 μl PBS/T, and 40 μl PBS w/o Ca, Mg and Na Bicarb (Gibco #14190-094) was added per well.
Stained cell plates were covered with black seals, and then read on the Cell Insight imaging platform (Thermo Scientific), with a 10× objective. The primary channel (Hoechst blue fluorescence 405 nM, BGRFR_386_23) was used to Autofocus and to count number of events (this provided information about cytotoxicity of the compounds tested). The secondary channel (Green 488 nM, BGRFR_485_20) measured pAKT staining. […]

[1] abbreviates: pAKT Ser473, Protocol B (*); read-out: Assay d) mTOR Cell IC50.
Setting [2] is: pAKT Ser473, Protocol A (§); read-out: Assay d) mTOR Cell IC50.

The term IC50 denotes the concentration that gives 50% inhibition.

Read-outs that look alike come from different tables or passages of the source.

T1 sequence (Q13535 whole entry): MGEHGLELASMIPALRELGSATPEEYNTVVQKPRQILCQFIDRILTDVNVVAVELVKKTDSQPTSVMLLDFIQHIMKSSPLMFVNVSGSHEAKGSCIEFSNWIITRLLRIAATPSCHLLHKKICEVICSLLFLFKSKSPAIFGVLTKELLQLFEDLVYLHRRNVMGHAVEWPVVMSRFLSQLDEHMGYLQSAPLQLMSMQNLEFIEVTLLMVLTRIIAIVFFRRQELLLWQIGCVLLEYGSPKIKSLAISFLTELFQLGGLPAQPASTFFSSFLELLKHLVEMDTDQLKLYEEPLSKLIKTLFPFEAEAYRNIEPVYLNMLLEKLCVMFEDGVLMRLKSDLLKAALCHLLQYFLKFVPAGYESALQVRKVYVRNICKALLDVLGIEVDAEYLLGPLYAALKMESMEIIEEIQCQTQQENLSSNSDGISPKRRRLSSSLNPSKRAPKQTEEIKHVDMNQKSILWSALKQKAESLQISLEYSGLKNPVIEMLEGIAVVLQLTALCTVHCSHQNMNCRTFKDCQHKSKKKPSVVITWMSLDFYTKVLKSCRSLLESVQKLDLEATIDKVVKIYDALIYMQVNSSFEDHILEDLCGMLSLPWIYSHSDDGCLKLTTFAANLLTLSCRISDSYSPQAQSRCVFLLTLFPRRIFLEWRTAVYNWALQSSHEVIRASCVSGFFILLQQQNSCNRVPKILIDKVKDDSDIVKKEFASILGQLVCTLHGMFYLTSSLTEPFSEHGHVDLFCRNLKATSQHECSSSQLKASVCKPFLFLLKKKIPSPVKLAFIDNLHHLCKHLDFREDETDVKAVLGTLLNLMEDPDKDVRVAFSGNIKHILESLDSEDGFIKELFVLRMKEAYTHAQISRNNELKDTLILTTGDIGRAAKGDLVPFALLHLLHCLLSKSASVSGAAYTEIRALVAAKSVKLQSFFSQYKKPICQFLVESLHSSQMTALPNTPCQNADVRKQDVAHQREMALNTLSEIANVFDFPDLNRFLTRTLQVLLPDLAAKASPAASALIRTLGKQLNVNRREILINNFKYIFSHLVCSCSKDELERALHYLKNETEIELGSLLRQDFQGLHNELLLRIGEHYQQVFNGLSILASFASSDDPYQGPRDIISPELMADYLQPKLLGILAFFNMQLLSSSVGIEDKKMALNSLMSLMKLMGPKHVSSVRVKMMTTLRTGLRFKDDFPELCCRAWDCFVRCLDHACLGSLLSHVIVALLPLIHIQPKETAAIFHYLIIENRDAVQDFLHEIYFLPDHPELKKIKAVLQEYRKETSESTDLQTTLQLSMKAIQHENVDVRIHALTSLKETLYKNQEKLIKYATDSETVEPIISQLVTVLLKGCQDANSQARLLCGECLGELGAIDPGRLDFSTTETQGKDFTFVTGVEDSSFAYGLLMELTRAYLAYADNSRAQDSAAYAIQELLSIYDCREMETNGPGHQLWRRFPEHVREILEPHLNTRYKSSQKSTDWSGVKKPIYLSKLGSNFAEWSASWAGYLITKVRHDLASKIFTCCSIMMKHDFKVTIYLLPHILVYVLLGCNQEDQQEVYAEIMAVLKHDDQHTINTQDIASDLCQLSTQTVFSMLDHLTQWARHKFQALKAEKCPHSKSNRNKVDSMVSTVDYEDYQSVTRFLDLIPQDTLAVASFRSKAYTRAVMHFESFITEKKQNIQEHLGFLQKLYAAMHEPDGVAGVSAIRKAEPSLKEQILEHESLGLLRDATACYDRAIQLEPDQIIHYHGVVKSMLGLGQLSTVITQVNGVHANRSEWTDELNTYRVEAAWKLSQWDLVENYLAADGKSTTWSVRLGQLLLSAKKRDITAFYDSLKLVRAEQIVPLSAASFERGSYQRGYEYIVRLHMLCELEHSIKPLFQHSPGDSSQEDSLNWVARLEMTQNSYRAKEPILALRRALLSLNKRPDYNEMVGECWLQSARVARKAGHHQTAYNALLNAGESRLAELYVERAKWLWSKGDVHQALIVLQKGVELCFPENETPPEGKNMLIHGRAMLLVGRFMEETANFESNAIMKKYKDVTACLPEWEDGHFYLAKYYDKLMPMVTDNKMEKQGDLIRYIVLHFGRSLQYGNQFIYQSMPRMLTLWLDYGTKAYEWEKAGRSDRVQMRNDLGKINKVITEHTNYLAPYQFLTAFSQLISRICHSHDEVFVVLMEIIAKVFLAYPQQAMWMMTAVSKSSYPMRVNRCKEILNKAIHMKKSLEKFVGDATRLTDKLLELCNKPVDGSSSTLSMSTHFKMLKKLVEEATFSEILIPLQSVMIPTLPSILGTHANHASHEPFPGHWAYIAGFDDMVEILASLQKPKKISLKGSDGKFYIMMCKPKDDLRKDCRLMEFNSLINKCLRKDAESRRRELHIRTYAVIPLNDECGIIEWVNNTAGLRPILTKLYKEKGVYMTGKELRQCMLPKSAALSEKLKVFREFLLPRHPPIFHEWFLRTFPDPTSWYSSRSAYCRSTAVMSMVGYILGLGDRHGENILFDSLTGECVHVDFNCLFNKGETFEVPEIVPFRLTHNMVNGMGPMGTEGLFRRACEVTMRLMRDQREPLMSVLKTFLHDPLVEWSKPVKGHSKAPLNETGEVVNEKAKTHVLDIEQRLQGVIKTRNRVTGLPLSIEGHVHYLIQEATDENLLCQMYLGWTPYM
T1 sequence (Q8WXE1 whole entry partner): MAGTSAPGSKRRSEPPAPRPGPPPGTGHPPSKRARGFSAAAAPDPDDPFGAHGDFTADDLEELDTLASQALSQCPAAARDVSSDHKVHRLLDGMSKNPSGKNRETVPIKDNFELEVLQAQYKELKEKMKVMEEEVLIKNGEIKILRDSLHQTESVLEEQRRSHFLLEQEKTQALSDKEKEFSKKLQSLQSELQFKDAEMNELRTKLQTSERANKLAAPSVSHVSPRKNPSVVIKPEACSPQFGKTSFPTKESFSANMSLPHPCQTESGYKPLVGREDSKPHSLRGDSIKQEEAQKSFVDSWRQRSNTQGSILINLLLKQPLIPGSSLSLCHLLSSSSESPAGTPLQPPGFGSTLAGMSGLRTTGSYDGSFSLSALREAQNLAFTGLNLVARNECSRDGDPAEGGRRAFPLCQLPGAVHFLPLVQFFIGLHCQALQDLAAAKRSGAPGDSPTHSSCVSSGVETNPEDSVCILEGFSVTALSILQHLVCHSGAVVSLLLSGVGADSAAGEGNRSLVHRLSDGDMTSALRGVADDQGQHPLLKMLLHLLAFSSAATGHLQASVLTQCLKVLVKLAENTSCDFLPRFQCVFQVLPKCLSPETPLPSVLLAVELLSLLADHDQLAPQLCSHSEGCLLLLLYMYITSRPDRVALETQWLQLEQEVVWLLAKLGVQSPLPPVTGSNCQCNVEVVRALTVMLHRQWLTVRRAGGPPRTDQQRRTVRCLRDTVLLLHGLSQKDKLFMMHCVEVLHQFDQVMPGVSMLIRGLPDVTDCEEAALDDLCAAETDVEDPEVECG

On to `CC(C)n1c(=O)n(C)c2cnc3ccc(-c4ccc(OCCCN(C)C)nc4F)cc3c21` [Example 10, 8-[6-[3-(dimethylamino)propoxy]-2-fluoro-3-pyridyl]-1-isopropyl-3-methyl-imidazo[4,5-c]quinolin-2-one], for which the IC50 at ATR kinase was > 30 µM; at mTOR (setting [1]) it was 3.49 µM. As for `CC(C)n1c(=O)n(C)c2cnc3ccc(-c4ccc(OCCCN5CCCCC5)nc4F)cc3c21` [Example 9, 8-[2-Fluoro-6-[3-(1-piperidyl)propoxy]-3-pyridyl]-1-isopropyl-3-methyl-imidazo[4,5-c]quinolin-2-one], the values for the IC50 on ATR kinase and on mTOR (setting [2]) were > 30 µM and > 5.19 µM, respectively. For `CC(C)n1c(=O)[nH]c2cnc3cc(F)c(-c4ccc(OCCCN5CCCCC5)nc4)cc3c21` [Example 18, 7-Fluoro-1-isopropyl-8-[6-[3-(1-piperidyl)propoxy]-3-pyridyl]-3H-imidazo[4,5-c]quinolin-2-one] the same measures were > 30 µM and > 30 µM. For `CC(C)n1c(=O)n(C)c2cnc3cc(F)c(-c4ccc(OCCCN5CCCC5)nc4)cc3c21` [Example 3, 7-Fluoro-1-isopropyl-3-methyl-8-[6-(3-pyrrolidin-1-ylpropoxy)-3-pyridyl]imidazo[4,5-c]quinolin-2-one] the same measures were > 30 µM and > 20 µM.

In the case of `CC(C)n1c(=O)n(C)c2cnc3cc(F)c(-c4ccc(OCCCN5CCCCC5)nc4)cc3c21` [Example 2, 7-Fluoro-1-isopropyl-3-methyl-8-[6-[3-(1-piperidyl)propoxy]-3-pyridyl]imidazo[4,5-c]quinolin-2-one], the IC50 on ATR kinase and at mTOR (setting [1]) was > 30 µM throughout. For the compound `CC(C)n1c(=O)n(C)c2cnc3ccc(-c4ccc(OCCCN5CCC5)nc4)cc3c21` [Example 8, 8-[6-[3-(Azetidin-1-yl)propoxy]-3-pyridyl]-1-isopropyl-3-methyl-imidazo[4,5-c]quinolin-2-one], the IC50 on mTOR (setting [1]) was found to be 0.405 µM. Regarding `CC(C)n1c(=O)n(C)c2cnc3cc(F)c(-c4ccc(OCCCN5CCCC5)nc4F)cc3c21` [Example 13, 7-fluoro-8-[2-fluoro-6-(3-pyrrolidin-1-ylpropoxy)-3-pyridyl]-1-isopropyl-3-methyl-imidazo[4,5-c]quinolin-2-one], the IC50 on ATR kinase and on mTOR (setting [1]) was > 30 µM each time. Take `CC(C)n1c(=O)n(C)c2cnc3cc(F)c(-c4ccc(OCCC[N+]5([O-])CCCCC5)nc4)cc3c21` [Metabolite A, 7-Fluoro-1-isopropyl-3-methyl-8-[6-[3-(1-oxidopiperidin-1-ium-1-yl)propoxy]-3-pyridyl]imidazo[4,5-c]quinolin-2-one]: the figures for the IC50 at ATR kinase and at mTOR (setting [1]) were 9.41 µM and > 30 µM, respectively. Turning to `CC(C)n1c(=O)n(C)c2cnc3ccc(-c4ccc(OCCCN(C)C)nc4)cc3c21` [Example 6, 8-[6-[3-(dimethylamino)propoxy]-3-pyridyl]-1-isopropyl-3-methyl-imidazo[4,5-c]quinolin-2-one], the IC50 at ATR kinase was > 20.7 µM; at mTOR (setting [2]), > 3.12 µM. For `CC(C)n1c(=O)n(C)c2cnc3cc(F)c(-c4ccc(OCCCN5CCC5)nc4F)cc3c21` [Example 16, 8-[6-[3-(azetidin-1-yl)propoxy]-2-fluoro-3-pyridyl]-7-fluoro-1-isopropyl-3-methyl-imidazo[4,5-c]quinolin-2-one] the same measures were > 30 µM and > 29.9 µM. In the case of `CC(C)n1c(=O)n(C)c2cnc3ccc(-c4ccc(OCCCN5CCCC5)nc4F)cc3c21` [Example 12, 8-[2-fluoro-6-(3-pyrrolidin-1-ylpropoxy)-3-pyridyl]-1-isopropyl-3-methyl-imidazo[4,5-c]quinolin-2-one], the IC50 was > 30 µM at ATR kinase and > 10 µM on mTOR (setting [1]). For the compound `CC(C)n1c(=O)n(C)c2cnc3cc(F)c(-c4ccc(OCCCN5CCCCC5)nc4F)cc3c21` [Example 14, 7-fluoro-8-[2-fluoro-6-[3-(1-piperidyl)propoxy]-3-pyridyl]-1-isopropyl-3-methyl-imidazo[4,5-c]quinolin-2-one], the IC50 on ATR kinase and on mTOR (setting [1]) was > 30 µM in each case. `CC(C)n1c(=O)n(C)c2cnc3ccc(-c4ccc(OCCCN5CCCC5)nc4)cc3c21` [Example 7, 1-isopropyl-3-methyl-8-[6-(3-pyrrolidin-1-ylpropoxy)-3-pyridyl]imidazo[4,5-c]quinolin-2-one]: the IC50 on ATR kinase is > 30 µM; at mTOR (setting [1]), 3.19 µM. `CC(C)n1c(=O)n(C)c2cnc3cc(F)c(-c4ccc(OCCCN5CCC5)nc4)cc3c21` [Example 4, 8-[6-[3-(azetidin-1-yl)propoxy]-3-pyridyl]-7-fluoro-1-isopropyl-3-methyl-imidazo[4,5-c]quinolin-2-one]: the IC50 on ATR kinase and on mTOR (setting [2]) was > 30 µM in each case.
